# PMC11949107, “Polyunsaturated fatty acids and their endocannabinoid-related metabolites activity at human TRPV1 and TRPA1 ion channels expressed in HEK-293 cells” (PeerJ, 2025)
# “And” between values parts separate entries of the source, which are not always exact repeats. Identical values can stand only once.
# Tests used:
# human TRPV1 [1] = biological target: T1, human TRPV1 (Homo sapiens, UniProt Q8NER1); assay: Calcium 5 dye [Ca]i assay in HEK-293 Flp-In T-REx cells expressing TRPV1 (agonist response); format: cell-based; conditions: for Change in Ca5 fluorescence, individual experiments (CRC raw data): TRPV1 cells
# T1 construct: Life Technologies (cells); host or cells: Flp-In T-REx HEK-293
# Outline: (§1)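 Tetracycline-induced (1 µg ml^−1, 4 h) HEK-293 T-REx cells loaded with Calcium 5 dye plus 1.25 mM probenecid for 1 h; agonist added after 1 min baseline (0.1% DMSO final), fluorescence (485/525 nm) read every 2 s for 5 min at 37 °C. Response as % change from baseline, solvent-subtracted; EC50/Emax from three-parameter logistic fit, given as pEC50.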
# human TRPA1 = biological target: T2, human TRPA1 (Homo sapiens, UniProt O75762); assay: Calcium 5 dye [Ca]i assay in HEK-293 Flp-In T-REx cells expressing TRPA1 (agonist response); format: cell-based; conditions: for [Ca]i response (change in fluorescence), individual replicates: sheet Figure 4
# T2 construct: Life Technologies (cells); host or cells: Flp-In T-REx HEK-293
# Outline: as §1
# HEK-293 EV cells = assay: Calcium 5 dye [Ca]i assay in HEK-293 empty vector (EV) cells; format: cell-based, human; conditions: 10 µM; HEK-293 EV cells; percentage of predrug baseline
# Outline: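 Tetracycline at 1 µg ml^−1 was added 4 h before testing; cells were loaded with Calcium 5 dye for 1 h and read at 37 °C, with drug added after 1 min baseline (final 0.1% DMSO). The response was the % change from the 60 s baseline after solvent subtraction, and EC50/Emax came from a three-parameter logistic fit, reported as pEC50.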
# human TRPV1 [2] = biological target: T1, human TRPV1; assay: Pre-incubation with PUFAs or capsazepine, then capsaicin (10 nM) response in HEK-293 TRPV1 cells; format: cell-based
# Method: Intracellular calcium [Ca]i levels were assessed using the calcium 5 kit from Molecular Devices (# R8186, Sunnyvale, CA, USA) on a FlexStation 3 Microplate Reader (Molecular Devices, Sunnyvale, CA, USA). […] Probenecid (cat # 50027; Biotium) which helps to prevent expulsion of calcium indicator from the cells was added to a final concentration of 1.25 mM. 90 µL of the dye were loaded into each well of the plate and incubated for 1 h before reading in the FlexStation 3 at 37 °C. Fluorescence was recorded every 2 s (λ excitation = 485 nm, λ emission = 525 nm) for 5 min. After 1 min of baseline recording, 20 µL of the drug, dissolved in HBSS with 1% dimethyl sulfoxide (DMSO) (cat # D2650; Sigma-Aldrich, Melbourne, Australia) was added (final DMSO concentration was 0.1% in well). […]
# human TRPV1 [3] = biological target: T1, human TRPV1; assay: PMA (phorbol ester) potentiation of TRPV1 responses in HEK-293 TRPV1 cells; format: cell-based; parameters: key to Drugs alone, individual experiments: change in [Ca]i as % of pre-drug baseline
# T1 sequence (Q8NER1 whole entry): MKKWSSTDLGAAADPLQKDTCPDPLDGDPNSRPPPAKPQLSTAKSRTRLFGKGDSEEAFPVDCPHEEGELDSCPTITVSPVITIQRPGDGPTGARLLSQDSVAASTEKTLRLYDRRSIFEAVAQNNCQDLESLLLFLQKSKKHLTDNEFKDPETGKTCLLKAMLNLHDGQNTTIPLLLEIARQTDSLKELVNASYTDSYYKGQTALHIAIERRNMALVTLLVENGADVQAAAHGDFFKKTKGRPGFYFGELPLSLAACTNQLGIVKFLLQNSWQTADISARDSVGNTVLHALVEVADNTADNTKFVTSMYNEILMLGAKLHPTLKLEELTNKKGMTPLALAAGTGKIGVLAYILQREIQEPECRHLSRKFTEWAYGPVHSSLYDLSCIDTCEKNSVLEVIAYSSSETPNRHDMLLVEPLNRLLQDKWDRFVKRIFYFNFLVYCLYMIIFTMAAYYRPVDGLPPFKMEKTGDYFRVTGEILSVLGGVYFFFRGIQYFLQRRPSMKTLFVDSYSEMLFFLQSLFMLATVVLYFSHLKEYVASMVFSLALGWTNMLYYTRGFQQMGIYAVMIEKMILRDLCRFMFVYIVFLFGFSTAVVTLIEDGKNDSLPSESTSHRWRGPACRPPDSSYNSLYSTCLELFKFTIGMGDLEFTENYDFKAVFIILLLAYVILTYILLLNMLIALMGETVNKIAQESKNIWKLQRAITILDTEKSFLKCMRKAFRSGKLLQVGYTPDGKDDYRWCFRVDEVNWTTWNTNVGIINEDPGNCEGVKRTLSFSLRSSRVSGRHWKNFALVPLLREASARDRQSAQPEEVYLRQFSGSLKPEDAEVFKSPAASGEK
# T2 sequence (O75762 whole entry): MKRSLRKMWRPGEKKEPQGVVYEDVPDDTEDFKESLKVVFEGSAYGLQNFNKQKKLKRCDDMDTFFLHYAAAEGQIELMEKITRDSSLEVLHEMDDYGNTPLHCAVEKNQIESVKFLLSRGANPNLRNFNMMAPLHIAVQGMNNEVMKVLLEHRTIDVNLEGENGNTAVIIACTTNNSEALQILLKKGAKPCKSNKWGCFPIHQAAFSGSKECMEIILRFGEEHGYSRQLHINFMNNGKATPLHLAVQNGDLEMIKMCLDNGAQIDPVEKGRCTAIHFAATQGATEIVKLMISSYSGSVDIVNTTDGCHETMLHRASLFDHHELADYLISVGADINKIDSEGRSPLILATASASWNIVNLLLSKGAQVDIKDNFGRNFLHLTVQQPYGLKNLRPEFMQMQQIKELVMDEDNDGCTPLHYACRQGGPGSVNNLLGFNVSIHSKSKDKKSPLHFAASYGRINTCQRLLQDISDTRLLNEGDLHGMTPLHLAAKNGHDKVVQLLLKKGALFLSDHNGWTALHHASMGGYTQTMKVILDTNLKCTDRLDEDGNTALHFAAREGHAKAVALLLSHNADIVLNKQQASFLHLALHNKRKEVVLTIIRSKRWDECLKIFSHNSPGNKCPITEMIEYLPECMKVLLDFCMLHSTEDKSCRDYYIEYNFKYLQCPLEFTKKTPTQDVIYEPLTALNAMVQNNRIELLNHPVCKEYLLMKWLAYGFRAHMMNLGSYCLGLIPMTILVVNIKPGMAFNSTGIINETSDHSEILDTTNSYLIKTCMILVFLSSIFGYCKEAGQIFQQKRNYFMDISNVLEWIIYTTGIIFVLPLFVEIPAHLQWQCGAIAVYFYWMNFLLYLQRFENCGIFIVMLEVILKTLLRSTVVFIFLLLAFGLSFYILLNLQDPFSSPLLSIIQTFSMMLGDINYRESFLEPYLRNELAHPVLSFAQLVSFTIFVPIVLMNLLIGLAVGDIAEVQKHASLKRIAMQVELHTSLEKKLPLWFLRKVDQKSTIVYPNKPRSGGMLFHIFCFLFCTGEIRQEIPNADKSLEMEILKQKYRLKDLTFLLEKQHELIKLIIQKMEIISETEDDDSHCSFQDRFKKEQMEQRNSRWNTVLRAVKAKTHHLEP
smiles,measurement,setting,value
"CC/C=C\C/C=C\C/C=C\C/C=C\C/C=C\CCCC(=O)O [EPA, eicosapentaenoic acid]",Elevation of [Ca]i in HEK-293 TRPV1 cells compared with HEK-293 EV cells,human TRPV1 [1]; 10 µM,did not produce a notable change
same,"Change of Ca5 fluorescence, Mean ± SEM, TRPV1 (10 µM)","human TRPV1 [1]; 10 µM, HEK-293 TRPV1 cells, percentage of predrug baseline",16 ± 5%
same,Emax at 30 µM,"human TRPV1 [1]; HEK293, read-out: Emax ± SEM % TRPV1 (30 µM)",34 ± 5%
same,"Change in Ca5 fluorescence, individual experiments (CRC raw data)",human TRPV1 [1]; log concentration -4.52288 (M),41.79 and 35.9904 and 24.921 and 28.9142 and 55.0634 and 19.9806
same,"Change in Ca5 fluorescence, individual experiments (CRC raw data)",human TRPV1 [1]; log concentration -5 (M),41.213 and 9.61 and 11.6653 and 7.673 and 15.0259 and 7.993
same,"Change in Ca5 fluorescence, individual experiments (CRC raw data)",human TRPV1 [1]; log concentration -5.52288 (M),10.434 and 4.673 and 8.042 and 0.3072
same,"Change in Ca5 fluorescence, individual experiments (CRC raw data)",human TRPV1 [1]; log concentration -6 (M),6.783 and 4.449 and 9.084 and 5.542 and 3.583 and -0.1759
same,"Change in Ca5 fluorescence, individual experiments (CRC raw data)",human TRPV1 [1]; log concentration -6.52288 (M),4.775 and 5.179 and 8.63 and 0.2635
same,"Change in Ca5 fluorescence, individual experiments (CRC raw data)",human TRPV1 [1]; log concentration -7 (M),4.257 and 3.906 and 5.164 and 0.2974
same,Elevation of [Ca]i in HEK-293 TRPA1 cells compared with HEK-293 EV cells,human TRPA1; 10 µM (cinnamaldehyde 300 µM),did not produce a change
same,"Change of Ca5 fluorescence, Mean ± SEM, TRPA1 (10 µM)","human TRPA1; 10 µM, HEK-293 TRPA1 cells, percentage of predrug baseline",58 ± 42%
same,TRPA1 activation at the highest concentration tested,human TRPA1; 30 µM,activated TRPA1
same,Emax at 30 µM,"human TRPA1; HEK293, read-out: Emax ± SEM % TRPA1 (30 µM), highest tested concentration (30 µM) or derived from concentration-response curves (cinnamaldehyde)",232 ± 67%
same,"[Ca]i response (change in fluorescence), individual replicates",human TRPA1; concentration -4.52288 (log),377.608 and 117.826 and 193.269 and 60.6586 and 155.376 and 486.394
same,"[Ca]i response (change in fluorescence), individual replicates",human TRPA1; concentration -5 (log),17.4998 and 14.5924 and 9.889 and 12.76 and 22.7093 and 269.088
same,"[Ca]i response (change in fluorescence), individual replicates",human TRPA1; concentration -5.52288 (log),2.522 and 3.13 and 3.703 and 4.731
same,"[Ca]i response (change in fluorescence), individual replicates",human TRPA1; concentration -6 (log),1.85 and 3.994 and 3.577 and 9.657 and 3.961 and 6.207
same,"[Ca]i response (change in fluorescence), individual replicates",human TRPA1; concentration -6.52288 (log),1.392 and 2.613 and 2.728 and 11.1533
same,"[Ca]i response (change in fluorescence), individual replicates",human TRPA1; concentration -7 (log),0.08029 and 3.966 and 3.106 and 5.407
same,"Change of Ca5 fluorescence, Mean ± SEM, EV (10 µM)",HEK-293 EV cells,14 ± 5%
same,Effect of pre-treatment on the capsaicin response,"human TRPV1 [2]; 10 µM, 5 min exposure, then capsaicin 10 nM",did not affect
same,"Post-capsaicin: response to subsequent capsaicin addition, individual experiments","human TRPV1 [2]; capsaicin 10 nM after 5 min drug 10 µM, TRPV1 cells",203.333 and 227.843 and 146.783 and 264.915 and 237.782 and 308.835
same,"Pre-capsaicin: response to first drug, individual experiments","human TRPV1 [2]; drug 10 µM for 5 min, TRPV1 cells",16.1107 and 14.1511 and 10.793 and 4.456 and 14.6833 and 13.0981
same,TRPV1 response after exposure to PMA,"human TRPV1 [3]; PMA 100 nM, 5 min pretreatment",only observed when a phorbol ester was present
same,"Drugs post-PMA, individual experiments","human TRPV1 [3]; PUFA 10 µM after PMA 100 nM for 5 min, response to PMA alone subtracted",49.2015 and 39.5321 and 37.0404 and 36.9714 and 31.5302 and 32.9212
same,"Drugs alone, individual experiments","human TRPV1 [3]; PUFA 10 µM without PMA pretreatment, TRPV1 cells",7.525 and 11.4184 and 9.766 and 10.5311 and 6.999 and 3.475 and 2.716 and 6.787 and 18.8884
